How the values were obtained:
Test in all cases: Kinase screen
Type in all cases: biochemical
Aurora A = Aurora A (Homo sapiens, UniProt O14965)
Description: (§1) With verapamil used as a positive control.
(§2) V. Distribution coefficient (LogD7.4)

BRSK2 = BRSK2 (Homo sapiens, UniProt Q8IWQ3)
Description: as §1, §2

CDK9-Cyclin T1 = CDK9-Cyclin T1 (Homo sapiens, UniProt P50750)
Description: as §1, §2

DAPK1 = DAPK1 (Homo sapiens, UniProt P53355)
Description: as §1, §2

EF2K = EF2K (Homo sapiens, UniProt O00418)
Chain of EF2K (O00418 whole entry): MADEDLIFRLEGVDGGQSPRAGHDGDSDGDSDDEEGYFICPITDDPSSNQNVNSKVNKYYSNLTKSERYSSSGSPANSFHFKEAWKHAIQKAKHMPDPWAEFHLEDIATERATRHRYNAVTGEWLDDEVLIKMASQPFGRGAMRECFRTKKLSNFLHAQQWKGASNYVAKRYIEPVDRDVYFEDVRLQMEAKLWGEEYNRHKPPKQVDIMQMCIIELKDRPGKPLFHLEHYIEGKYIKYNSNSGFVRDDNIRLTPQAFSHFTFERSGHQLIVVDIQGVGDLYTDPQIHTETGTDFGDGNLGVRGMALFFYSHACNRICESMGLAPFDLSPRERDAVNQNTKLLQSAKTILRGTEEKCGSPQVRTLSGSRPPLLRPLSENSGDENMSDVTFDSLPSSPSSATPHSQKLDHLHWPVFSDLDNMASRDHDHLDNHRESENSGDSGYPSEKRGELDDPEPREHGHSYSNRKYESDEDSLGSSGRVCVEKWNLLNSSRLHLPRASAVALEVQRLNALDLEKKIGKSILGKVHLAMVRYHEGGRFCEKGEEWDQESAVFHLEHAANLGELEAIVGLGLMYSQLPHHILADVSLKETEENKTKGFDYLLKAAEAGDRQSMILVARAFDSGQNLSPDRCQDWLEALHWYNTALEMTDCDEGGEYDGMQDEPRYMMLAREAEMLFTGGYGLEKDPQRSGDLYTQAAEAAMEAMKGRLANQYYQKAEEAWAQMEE
Description: as §1, §2

EPH-B2 = EPH-B2 (Homo sapiens, UniProt P29323)
Chain of EPH-B2 (P29323 19-1055): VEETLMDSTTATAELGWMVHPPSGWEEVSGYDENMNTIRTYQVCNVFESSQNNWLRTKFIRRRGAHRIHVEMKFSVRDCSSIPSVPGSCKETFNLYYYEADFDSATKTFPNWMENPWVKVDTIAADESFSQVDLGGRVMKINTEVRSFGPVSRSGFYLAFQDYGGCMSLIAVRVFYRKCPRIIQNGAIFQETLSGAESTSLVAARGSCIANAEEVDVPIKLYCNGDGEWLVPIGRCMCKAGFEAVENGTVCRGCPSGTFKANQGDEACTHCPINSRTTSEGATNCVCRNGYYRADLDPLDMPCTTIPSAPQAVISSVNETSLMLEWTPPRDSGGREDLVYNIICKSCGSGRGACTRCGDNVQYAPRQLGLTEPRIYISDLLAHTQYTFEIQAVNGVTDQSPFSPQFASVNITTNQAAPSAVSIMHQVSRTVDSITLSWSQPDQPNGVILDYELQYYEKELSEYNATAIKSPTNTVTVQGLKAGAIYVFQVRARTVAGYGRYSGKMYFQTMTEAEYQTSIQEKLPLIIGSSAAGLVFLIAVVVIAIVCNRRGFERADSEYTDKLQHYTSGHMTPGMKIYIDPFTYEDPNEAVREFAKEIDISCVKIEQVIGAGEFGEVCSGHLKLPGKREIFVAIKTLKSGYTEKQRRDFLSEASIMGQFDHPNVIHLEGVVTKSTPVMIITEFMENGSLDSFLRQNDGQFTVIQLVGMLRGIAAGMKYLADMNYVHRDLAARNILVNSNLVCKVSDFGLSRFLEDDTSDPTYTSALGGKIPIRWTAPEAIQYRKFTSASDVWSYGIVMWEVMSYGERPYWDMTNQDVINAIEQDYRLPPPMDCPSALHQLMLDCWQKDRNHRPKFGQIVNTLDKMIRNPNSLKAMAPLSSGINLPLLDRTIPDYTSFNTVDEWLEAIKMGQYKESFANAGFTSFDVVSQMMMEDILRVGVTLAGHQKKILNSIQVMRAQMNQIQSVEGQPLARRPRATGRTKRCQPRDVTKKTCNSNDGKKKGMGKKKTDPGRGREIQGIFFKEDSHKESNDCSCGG
Description: as §1, §2

EPH-B4 = EPH-B4 (Homo sapiens, UniProt P54760)
Description: as §1, §2

ERK5 = ERK5 (Homo sapiens, UniProt Q13164)
Description: as §1, §2

ERK8 = ERK8 (Homo sapiens, UniProt Q8TD08)
Description: as §1, §2

GCK = GCK (Homo sapiens, UniProt Q12851)
Description: as §1, §2

HER4 = HER4 (Homo sapiens, UniProt Q15303)
Description: as §1, §2

IR = IR (Homo sapiens, UniProt P06213)
Description: as §1, §2

IRAK4 = IRAK4 (Homo sapiens, UniProt Q9NWZ3)
Description: as §1, §2

JAK3 = JAK3 (Homo sapiens, UniProt P52333)
Description: as §1, §2

JNK1 = JNK1 (Homo sapiens, UniProt P45983)
Chain of JNK1 (P45983 whole entry): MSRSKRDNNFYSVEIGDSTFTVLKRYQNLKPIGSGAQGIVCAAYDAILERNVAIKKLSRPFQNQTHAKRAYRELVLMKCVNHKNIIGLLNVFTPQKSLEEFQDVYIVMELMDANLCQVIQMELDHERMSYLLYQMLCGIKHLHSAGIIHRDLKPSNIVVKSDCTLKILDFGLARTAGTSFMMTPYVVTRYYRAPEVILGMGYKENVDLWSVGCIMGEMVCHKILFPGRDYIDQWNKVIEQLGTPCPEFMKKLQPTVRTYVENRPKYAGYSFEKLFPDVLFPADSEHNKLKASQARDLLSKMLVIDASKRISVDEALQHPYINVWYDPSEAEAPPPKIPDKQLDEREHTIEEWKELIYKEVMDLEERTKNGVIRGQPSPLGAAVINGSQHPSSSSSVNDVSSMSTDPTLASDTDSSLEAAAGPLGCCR
Description: as §1, §2

JNK3 = JNK3 (Homo sapiens, UniProt P53779)
Description: as §1, §2

MAP4K5 = MAP4K5 (Homo sapiens, UniProt Q9Y4K4)
Description: as §1, §2

MARK2 = MARK2 (Homo sapiens, UniProt Q7KZI7)
Description: as §1, §2

MARK3 = MARK3 (Homo sapiens, UniProt P27448)
Description: as §1, §2

MARK4 = MARK4 (Homo sapiens, UniProt Q96L34)
Chain of MARK4 (Q96L34 whole entry): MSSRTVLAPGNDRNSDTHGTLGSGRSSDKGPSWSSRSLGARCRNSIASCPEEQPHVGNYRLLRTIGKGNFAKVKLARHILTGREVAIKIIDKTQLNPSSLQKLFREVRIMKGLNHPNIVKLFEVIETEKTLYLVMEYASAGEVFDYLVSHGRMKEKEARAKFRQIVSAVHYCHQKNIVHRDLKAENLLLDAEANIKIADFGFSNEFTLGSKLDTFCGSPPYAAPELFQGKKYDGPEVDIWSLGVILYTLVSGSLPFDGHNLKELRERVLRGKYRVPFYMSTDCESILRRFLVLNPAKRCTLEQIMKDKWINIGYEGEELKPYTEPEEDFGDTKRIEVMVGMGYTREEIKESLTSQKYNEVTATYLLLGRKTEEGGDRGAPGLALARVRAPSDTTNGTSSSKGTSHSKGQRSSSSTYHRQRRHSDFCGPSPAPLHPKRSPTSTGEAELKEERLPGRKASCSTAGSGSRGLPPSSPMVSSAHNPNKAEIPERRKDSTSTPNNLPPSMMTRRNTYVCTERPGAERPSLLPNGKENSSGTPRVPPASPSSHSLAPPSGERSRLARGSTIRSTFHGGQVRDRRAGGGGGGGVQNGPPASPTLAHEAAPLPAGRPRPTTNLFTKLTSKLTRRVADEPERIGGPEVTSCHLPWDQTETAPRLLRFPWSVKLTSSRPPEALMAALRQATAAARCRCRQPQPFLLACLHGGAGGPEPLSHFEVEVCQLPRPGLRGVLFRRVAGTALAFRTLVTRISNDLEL
Description: as §1, §2

MKK2 = MKK2 (Homo sapiens, UniProt P36507)
Description: as §1, §2

MKK6 = MKK6 (Homo sapiens, UniProt P52564)
Description: as §1, §2

MLK3 = MLK3 (Homo sapiens, UniProt Q16584)
Description: as §1, §2

MST4 = MST4 (Homo sapiens, UniProt Q9P289)
Description: as §1, §2

PAK6 = PAK6 (Homo sapiens, UniProt Q9NQU5)
Description: as §1, §2

PDGFRA = PDGFRA (Homo sapiens, UniProt P16234)
Description: as §1, §2

PIM2 = PIM2 (Homo sapiens, UniProt Q9P1W9)
Description: as §1, §2

PKA = PKA (Homo sapiens, UniProt P17612)
Description: as §1, §2

PKBa = PKBa (Homo sapiens, UniProt P31749)
Description: as §1, §2

PKCa = PKCa (Homo sapiens, UniProt P17252)
Description: as §1, §2

SGK1 = SGK1 (Homo sapiens, UniProt O00141)
Description: as §1, §2

SYK = SYK (Homo sapiens, UniProt P43405)
Description: as §1, §2

SmMLCK = SmMLCK (Homo sapiens, UniProt Q15746)
Description: as §1, §2

Src = Src (Homo sapiens, UniProt P12931)
Description: as §1, §2

TAK1 = TAK1 (Homo sapiens, UniProt O43318)
Description: as §1, §2

TESK1 = TESK1 (Homo sapiens, UniProt Q15569)
Chain of TESK1 (Q15569 whole entry): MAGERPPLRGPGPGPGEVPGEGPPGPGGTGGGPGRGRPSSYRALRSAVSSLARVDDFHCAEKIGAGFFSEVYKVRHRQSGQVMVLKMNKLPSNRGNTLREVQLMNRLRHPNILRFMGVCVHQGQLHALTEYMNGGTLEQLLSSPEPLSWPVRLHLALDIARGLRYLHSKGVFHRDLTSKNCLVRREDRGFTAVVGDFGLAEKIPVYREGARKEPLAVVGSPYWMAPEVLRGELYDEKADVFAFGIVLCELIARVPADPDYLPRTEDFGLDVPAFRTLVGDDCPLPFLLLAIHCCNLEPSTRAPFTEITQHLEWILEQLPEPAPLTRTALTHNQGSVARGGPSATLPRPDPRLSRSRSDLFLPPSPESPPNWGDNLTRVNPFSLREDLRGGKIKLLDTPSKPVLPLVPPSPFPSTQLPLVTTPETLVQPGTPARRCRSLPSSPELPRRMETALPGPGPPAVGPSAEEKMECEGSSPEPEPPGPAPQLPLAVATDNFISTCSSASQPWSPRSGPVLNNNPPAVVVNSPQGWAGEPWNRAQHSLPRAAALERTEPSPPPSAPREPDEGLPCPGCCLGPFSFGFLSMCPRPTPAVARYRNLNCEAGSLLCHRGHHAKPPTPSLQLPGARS
Description: as §1, §2

TIE2 = TIE2 (Homo sapiens, UniProt Q02763)
Description: as §1, §2

ULK1 = ULK1 (Homo sapiens, UniProt O75385)
Description: as §1, §2

ULK2 = ULK2 (Homo sapiens, UniProt Q8IYT8)
Description: as §1, §2

YES1 = YES1 (Homo sapiens, UniProt P07947)
Description: as §1, §2

p38a MAPK = p38a MAPK (Homo sapiens, UniProt Q16539)
Chain of p38a MAPK (Q16539 whole entry): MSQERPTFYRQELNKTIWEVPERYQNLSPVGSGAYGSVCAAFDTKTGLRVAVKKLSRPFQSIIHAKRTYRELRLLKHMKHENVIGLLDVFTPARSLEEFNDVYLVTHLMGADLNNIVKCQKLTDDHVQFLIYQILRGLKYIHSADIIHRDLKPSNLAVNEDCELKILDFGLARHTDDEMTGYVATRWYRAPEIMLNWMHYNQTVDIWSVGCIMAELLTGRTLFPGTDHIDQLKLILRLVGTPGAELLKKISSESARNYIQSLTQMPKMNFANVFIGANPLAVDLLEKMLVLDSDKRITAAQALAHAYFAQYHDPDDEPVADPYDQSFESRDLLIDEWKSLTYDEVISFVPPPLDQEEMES
Description: as §1, §2

Chain of CDK9-Cyclin T1 (P50750 whole entry): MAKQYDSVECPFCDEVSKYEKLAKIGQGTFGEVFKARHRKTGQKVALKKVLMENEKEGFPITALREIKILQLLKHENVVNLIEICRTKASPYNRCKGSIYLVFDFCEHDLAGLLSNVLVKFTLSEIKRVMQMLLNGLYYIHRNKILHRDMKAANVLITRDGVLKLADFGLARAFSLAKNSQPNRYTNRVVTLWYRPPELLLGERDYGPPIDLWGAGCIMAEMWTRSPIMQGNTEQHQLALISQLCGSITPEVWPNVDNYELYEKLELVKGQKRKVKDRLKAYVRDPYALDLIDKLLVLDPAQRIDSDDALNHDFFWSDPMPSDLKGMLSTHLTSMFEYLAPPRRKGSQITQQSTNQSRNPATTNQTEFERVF
Chain of CDK9-Cyclin T1 (O60563 whole entry partner): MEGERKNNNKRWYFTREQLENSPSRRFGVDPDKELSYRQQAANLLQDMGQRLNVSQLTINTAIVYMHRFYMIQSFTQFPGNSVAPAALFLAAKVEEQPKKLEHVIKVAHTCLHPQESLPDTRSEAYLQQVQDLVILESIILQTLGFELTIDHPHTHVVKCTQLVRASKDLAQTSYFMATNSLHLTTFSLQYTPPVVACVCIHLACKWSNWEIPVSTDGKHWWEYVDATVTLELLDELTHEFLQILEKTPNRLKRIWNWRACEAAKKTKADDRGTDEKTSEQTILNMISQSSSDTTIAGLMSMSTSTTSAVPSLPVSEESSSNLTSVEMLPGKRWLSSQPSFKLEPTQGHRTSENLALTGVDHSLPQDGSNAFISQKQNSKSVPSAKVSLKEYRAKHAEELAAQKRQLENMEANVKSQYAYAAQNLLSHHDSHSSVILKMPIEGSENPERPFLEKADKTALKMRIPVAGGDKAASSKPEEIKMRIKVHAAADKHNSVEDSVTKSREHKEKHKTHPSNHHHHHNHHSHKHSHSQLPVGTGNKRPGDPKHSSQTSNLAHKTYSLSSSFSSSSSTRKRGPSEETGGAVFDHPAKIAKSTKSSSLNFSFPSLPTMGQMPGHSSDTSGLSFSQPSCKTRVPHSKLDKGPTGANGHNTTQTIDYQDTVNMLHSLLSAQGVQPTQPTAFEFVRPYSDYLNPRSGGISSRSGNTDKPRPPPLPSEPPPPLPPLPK

Question: How did the activity at 1 µM (Aurora A) turn out when `CCN(CC)Cc1ccc(OC)c(-c2cc3c(-c4ccc(C(=O)O)c(C(C)C)c4)ccnc3[nH]2)c1` [analogue 1, 4-(2-(5-((Diethylamino)methyl)-2-methoxyphenyl)-1H-pyrrolo[2,3-b]pyridin-4-yl)-2-isopropylbenzoic Acid] was run?
Answer: Its activity at 1 µM is 17%.

Question: And the activity at 1 µM (BRSK2)?
Answer: Its activity at 1 µM is 74%.

Question: And the activity at 1 µM (CDK9-Cyclin T1)?
Answer: Its activity at 1 µM is 2%.

Question: What about the activity at 1 µM (DAPK1) of the same compound?
Answer: The activity at 1 µM was 105%.

Question: And the activity at 1 µM (EF2K)?
Answer: Its activity at 1 µM is 113%.

Question: And the activity at 1 µM (EPH-B2)?
Answer: Its activity at 1 µM is 100%.

Question: And the activity at 1 µM (EPH-B4)?
Answer: The activity at 1 µM was 82%.

Question: And the activity at 1 µM (ERK5)?
Answer: The activity at 1 µM was 54%.

Question: What about the activity at 1 µM (ERK8) of the same compound?
Answer: Its activity at 1 µM is 55%.

Question: What about the activity at 1 µM (GCK) of the same compound?
Answer: Its activity at 1 µM is 31%.

Question: And the activity at 1 µM (HER4)?
Answer: Its activity at 1 µM is 112%.

Question: What about the activity at 1 µM (IR) of the same compound?
Answer: The activity at 1 µM was 77%.

Question: What about the activity at 1 µM (IRAK4) of the same compound?
Answer: The activity at 1 µM was 24%.

Question: And the activity at 1 µM (JAK3)?
Answer: The activity at 1 µM was 22%.

Question: And the activity at 1 µM (JNK1)?
Answer: The activity at 1 µM was 85%.

Question: What about the activity at 1 µM (JNK3) of the same compound?
Answer: The activity at 1 µM was 52%.

Question: And the activity at 1 µM (MAP4K5)?
Answer: Its activity at 1 µM is 14%.

Question: And the activity at 1 µM (MARK2)?
Answer: The activity at 1 µM was 34%.

Question: And the activity at 1 µM (MARK3)?
Answer: The activity at 1 µM was 34%.

Question: And the activity at 1 µM (MARK4)?
Answer: The activity at 1 µM was 59%.

Question: And the activity at 1 µM (MKK2)?
Answer: Its activity at 1 µM is 17%.

Question: And the activity at 1 µM (MKK6)?
Answer: Its activity at 1 µM is 100%.

Question: And the activity at 1 µM (MLK3)?
Answer: The activity at 1 µM was 107%.

Question: And the activity at 1 µM (MST4)?
Answer: The activity at 1 µM was 59%.

Question: And the activity at 1 µM (PAK6)?
Answer: Its activity at 1 µM is 92%.

Question: What about the activity at 1 µM (PDGFRA) of the same compound?
Answer: Its activity at 1 µM is 133%.

Question: What about the activity at 1 µM (PIM2) of the same compound?
Answer: Its activity at 1 µM is 93%.

Question: What about the activity at 1 µM (PKA) of the same compound?
Answer: The activity at 1 µM was 103%.

Question: What about the activity at 1 µM (PKBa) of the same compound?
Answer: Its activity at 1 µM is 115%.

Question: What about the activity at 1 µM (PKCa) of the same compound?
Answer: Its activity at 1 µM is 64%.

Question: What about the activity at 1 µM (SGK1) of the same compound?
Answer: The activity at 1 µM was 38%.

Question: And the activity at 1 µM (SYK)?
Answer: Its activity at 1 µM is 89%.

Question: And the activity at 1 µM (SmMLCK)?
Answer: The activity at 1 µM was 80%.

Question: And the activity at 1 µM (Src)?
Answer: The activity at 1 µM was 42%.

Question: And the activity at 1 µM (TAK1)?
Answer: The activity at 1 µM was 25%.

Question: And the activity at 1 µM (TESK1)?
Answer: Its activity at 1 µM is 78%.

Question: And the activity at 1 µM (TIE2)?
Answer: The activity at 1 µM was 120%.

Question: What about the activity at 1 µM (ULK1) of the same compound?
Answer: Its activity at 1 µM is 80%.

Question: What about the activity at 1 µM (ULK2) of the same compound?
Answer: Its activity at 1 µM is 96%.

Question: And the activity at 1 µM (YES1)?
Answer: Its activity at 1 µM is 67%.

Question: What about the activity at 1 µM (p38a MAPK) of the same compound?
Answer: The activity at 1 µM was 89%.
